Data: ChEMBL document CHEMBL4304831, “Chalcone-Thiazole Hybrids: Rational Design, Synthesis, and Lead Identification against 5-Lipoxygenase” (ACS Med Chem Lett, 2019)

Assays:
[1] = biological target: T1, Polyunsaturated fatty acid 5-lipoxygenase (Homo sapiens) (UniProt P09917); assay: Inhibition of human recombinant 5-LOX pseudoperoxidase activity expressed in Escherichia coli BL21 assessed as compound redox activity by measuring change in absorption at 10 uM using 13(S)-HpODE as substrate in presence of ATP by UV-vis spectrophotometric method relative to control; parameters: scale not given: the % may be the effect or the level left
T1 sequence (whole entry): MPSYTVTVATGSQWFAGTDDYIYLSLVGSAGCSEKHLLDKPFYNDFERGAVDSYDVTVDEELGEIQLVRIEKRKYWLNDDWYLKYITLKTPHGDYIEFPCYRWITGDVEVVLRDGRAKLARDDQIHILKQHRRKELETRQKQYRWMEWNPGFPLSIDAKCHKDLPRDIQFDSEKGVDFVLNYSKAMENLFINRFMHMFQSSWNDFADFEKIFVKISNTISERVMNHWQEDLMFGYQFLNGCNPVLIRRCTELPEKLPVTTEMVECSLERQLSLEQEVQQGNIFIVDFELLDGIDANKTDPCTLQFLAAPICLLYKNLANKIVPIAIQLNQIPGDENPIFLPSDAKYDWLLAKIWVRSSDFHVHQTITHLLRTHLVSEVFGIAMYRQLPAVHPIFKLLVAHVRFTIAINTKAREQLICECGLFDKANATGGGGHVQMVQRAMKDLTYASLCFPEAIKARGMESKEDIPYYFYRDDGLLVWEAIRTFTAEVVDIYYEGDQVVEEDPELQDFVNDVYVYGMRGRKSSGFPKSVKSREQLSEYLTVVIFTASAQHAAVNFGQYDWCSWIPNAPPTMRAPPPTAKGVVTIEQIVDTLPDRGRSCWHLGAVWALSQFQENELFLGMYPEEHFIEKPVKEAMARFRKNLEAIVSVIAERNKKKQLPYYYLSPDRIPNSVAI

[2] = biological target: T2, Polyunsaturated fatty acid 5-lipoxygenase (Homo sapiens, UniProt P09917); assay: Inhibition of human recombinant 5-LOX expressed in Escherichia coli BL21 assessed as conversion of arachidonic acid to 5-HPETE using arachidonic acid as substrate in presence of ATP by UV-vis spectrophotometry analysis
T2 sequence (P09917 whole entry): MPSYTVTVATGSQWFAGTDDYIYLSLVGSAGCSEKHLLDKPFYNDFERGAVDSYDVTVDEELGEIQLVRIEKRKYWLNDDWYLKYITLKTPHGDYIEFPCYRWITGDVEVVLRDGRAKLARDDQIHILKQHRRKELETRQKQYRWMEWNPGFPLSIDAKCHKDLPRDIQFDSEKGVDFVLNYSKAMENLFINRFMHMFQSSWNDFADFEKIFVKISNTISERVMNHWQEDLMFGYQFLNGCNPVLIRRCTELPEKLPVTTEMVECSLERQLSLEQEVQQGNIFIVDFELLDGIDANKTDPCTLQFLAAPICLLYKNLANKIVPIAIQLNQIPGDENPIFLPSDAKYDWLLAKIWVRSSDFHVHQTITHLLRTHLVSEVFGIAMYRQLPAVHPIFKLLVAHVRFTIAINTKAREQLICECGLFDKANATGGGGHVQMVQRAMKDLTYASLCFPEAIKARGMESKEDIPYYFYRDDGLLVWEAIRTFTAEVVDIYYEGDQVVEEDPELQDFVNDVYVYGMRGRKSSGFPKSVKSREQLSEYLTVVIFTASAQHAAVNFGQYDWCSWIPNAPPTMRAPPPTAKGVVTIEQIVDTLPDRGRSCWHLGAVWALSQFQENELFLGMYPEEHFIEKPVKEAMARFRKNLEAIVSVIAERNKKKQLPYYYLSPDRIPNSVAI

[3] = biological target: T1, Polyunsaturated fatty acid 5-lipoxygenase (Homo sapiens); assay: Inhibition of human recombinant 5-LOX expressed in Escherichia coli BL21 assessed as conversion of arachidonic acid to 5-HPETE at 10 uM using arachidonic acid as substrate in presence of ATP by UV-vis spectrophotometry analysis relative to control
[4] = Antioxidant activity assessed as DPPH radical scavenging activity at 10 uM after 30 mins under dark condition relative to control; format: functional
[5] = compound: COc1cc(/C=C/C(=O)c2sc(NC(=O)c3ccccc3)nc2C)cc(OC)c1OC; assay: Noncompetitive inhibition of human recombinant 5-LOX expressed in Escherichia coli BL21 assessed as Km for substrate at 2 uM using varying levels arachidonic acid as substrate by Lineweaver-Burk plot analysis (reference value: 1.9 +/- 0.4 uM)
[6] = compound: Cc1nc(NC(=O)c2ccccc2)sc1C(=O)/C=C/c1cc2c(cc1Br)OCO2; assay: (§1) Competitive inhibition of human recombinant 5-LOX expressed in Escherichia coli BL21 assessed as Vmax for substrate at 5 uM using varying levels arachidonic acid as substrate by Lineweaver-Burk plot analysis (reference value: 0.33 to 0.45 +/- 0.01 nmol/min)
[7] = compound: COc1ccc(C(=O)Nc2nc(C)c(C(=O)/C=C/c3ccc(C)cc3)s2)cc1; assay: as §1
[8] = compound: COc1cc(/C=C/C(=O)c2sc(NC(=O)c3ccccc3)nc2C)cc(OC)c1OC; assay: Noncompetitive inhibition of human recombinant 5-LOX expressed in Escherichia coli BL21 assessed as decrease in Vmax for substrate at 5 uM using varying levels arachidonic acid as substrate by Lineweaver-Burk plot analysis (reference value: 0.38 +/- 0.02 nmol/min)
[9] = compound: Cc1nc(NC(=O)c2ccccc2)sc1C(=O)/C=C/c1cc2c(cc1Br)OCO2; assay: (§2) Competitive inhibition of human recombinant 5-LOX expressed in Escherichia coli BL21 assessed as Vmax for substrate at 2 uM using varying levels arachidonic acid as substrate by Lineweaver-Burk plot analysis (reference value: 0.33 to 0.45 +/- 0.01 nmol/min)
[10] = compound: COc1ccc(C(=O)Nc2nc(C)c(C(=O)/C=C/c3ccc(C)cc3)s2)cc1; assay: as §2
[11] = compound: COc1cc(/C=C/C(=O)c2sc(NC(=O)c3ccccc3)nc2C)cc(OC)c1OC; assay: Noncompetitive inhibition of human recombinant 5-LOX expressed in Escherichia coli BL21 assessed as decrease in Vmax for substrate at 2 uM using varying levels arachidonic acid as substrate by Lineweaver-Burk plot analysis (reference value: 0.38 +/- 0.02 nmol/min)
[12] = compound: Cc1nc(NC(=O)c2ccccc2)sc1C(=O)/C=C/c1cc2c(cc1Br)OCO2; assay: (§3) Competitive inhibition of human recombinant 5-LOX expressed in Escherichia coli BL21 assessed as increase in Km for substrate at 2 uM using varying levels arachidonic acid as substrate by Lineweaver-Burk plot analysis (reference value: 0.31 to 0.35 +/- 0.08 to 0.10 uM)
[13] = compound: COc1ccc(C(=O)Nc2nc(C)c(C(=O)/C=C/c3ccc(C)cc3)s2)cc1; assay: as §3
[14] = compound: Cc1nc(NC(=O)c2ccccc2)sc1C(=O)/C=C/c1cc2c(cc1Br)OCO2; assay: (§4) Competitive inhibition of human recombinant 5-LOX expressed in Escherichia coli BL21 assessed as increase in Km for substrate at 5 uM using varying levels arachidonic acid as substrate by Lineweaver-Burk plot analysis (reference value: 0.31 to 0.35 +/- 0.08 to 0.10 uM)
[15] = compound: COc1ccc(C(=O)Nc2nc(C)c(C(=O)/C=C/c3ccc(C)cc3)s2)cc1; assay: as §4
[16] = compound: COc1cc(/C=C/C(=O)c2sc(NC(=O)c3ccccc3)nc2C)cc(OC)c1OC; assay: Noncompetitive inhibition of human recombinant 5-LOX expressed in Escherichia coli BL21 assessed as Km for substrate at 5 uM using varying levels arachidonic acid as substrate by Lineweaver-Burk plot analysis (reference value: 1.9 +/- 0.4 uM)

Cc1nc(NC(=O)c2ccccc2)sc1C(=O)/C=C/c1ccc(F)cc1
Activity [1]: -12.5%
IC50 [2]: 140 nM
inhibition [3]: 98%
Activity [4]: 3%

Cc1nc(NC(=O)c2ccccc2)sc1C(=O)/C=C/c1cc2c(cc1Br)OCO2
Activity [1]: 1.2%
IC50 [2]: 120 nM
inhibition [3]: 100%
Activity [4]: 5.4%

Cc1nc(NC(=O)c2ccc(F)cc2)sc1C(=O)/C=C/c1ccco1
inhibition [3]: 65.3%
Activity [4]: 8.2%

Cc1nc(NC(=O)c2ccc([N+](=O)[O-])cc2)sc1C(=O)/C=C/c1ccc(Cl)cc1
inhibition [3]: 48.8%
Activity [4]: 2.4%

CC(c1cc2ccccc2s1)N(O)C(N)=O (centres undefined)
Activity [4]: 10.3%

Cc1nc(NC(=O)c2ccccc2)sc1C(=O)/C=C/c1cccc(Br)c1
inhibition [3]: 42.5%
Activity [4]: 5.7%

Cc1nc(NC(=O)c2ccccc2)sc1C(=O)/C=C/c1cccs1
inhibition [3]: 71.9%
Activity [4]: 2.2%

Cc1nc(NC(=O)c2ccccc2)sc1C(=O)/C=C/c1ccc(Br)cc1
inhibition [3]: 52.3%
Activity [4]: 2.4%

COc1ccc(/C=C/C(=O)c2sc(NC(=O)c3ccccc3)nc2C)cc1OC
inhibition [3]: 70.2%
Activity [4]: 6.4%

COc1cc(/C=C/C(=O)c2sc(NC(=O)c3ccccc3)nc2C)cc(OC)c1OC
Activity [1]: -56.6%
IC50 [2]: 70 nM
inhibition [3]: 100%
Activity [4]: 5.7%

Cc1nc(NC(=O)c2ccccc2)sc1C(=O)/C=C/c1ccccc1
inhibition [3]: 73.5%
Activity [4]: 2.5%

Cc1nc(NC(=O)c2ccccc2)sc1C(=O)/C=C/c1ccco1
inhibition [3]: 57.2%
Activity [4]: 3.4%

COc1ccc(/C=C/C(=O)c2sc(NC(=O)c3ccccc3)nc2C)cc1
inhibition [3]: 58.8%
Activity [4]: 7.9%

Cc1nc(NC(=O)c2ccccc2)sc1C(=O)/C=C/c1ccc(Cl)cc1
inhibition [3]: 63.7%
Activity [4]: 8.8%

Cc1ccc(/C=C/C(=O)c2sc(NC(=O)c3ccc(F)cc3)nc2C)cc1
Activity [1]: -56.3%
IC50 [2]: 540 nM
inhibition [3]: 91.5%
Activity [4]: 15%

O=C1O[C@H]([C@@H](O)CO)C(O)=C1O
Activity [4]: 60.5%

COc1ccc(C(=O)Nc2nc(C)c(C(=O)/C=C/c3ccc(C)cc3)s2)cc1
Activity [1]: 5.6%
IC50 [2]: 80 nM
inhibition [3]: 100%
Activity [4]: 5.5%

Cc1nc(NC(=O)c2ccccc2)sc1C(=O)/C=C/c1ccc(N(C)C)cc1
Activity [1]: -12.2%
IC50 [2]: 640 nM
inhibition [3]: 88.2%
Activity [4]: 0%

Cc1nc(NC(=O)c2ccc(F)cc2)sc1C(=O)/C=C/c1ccc(N(C)C)cc1
inhibition [3]: 70.2%
Activity [4]: 3.9%

Cc1nc(NC(=O)c2ccc(F)cc2)sc1C(=O)/C=C/c1cccs1
inhibition [3]: 81.7%
Activity [4]: 0%

Cc1nc(NC(=O)c2ccc(F)cc2)sc1C(=O)/C=C/c1cc2c(cc1Br)OCO2
inhibition [3]: 50.6%
Activity [4]: 5.1%

Cc1nc(NC(=O)c2ccccc2)sc1C(=O)/C=C/c1cccc([N+](=O)[O-])c1
Activity [1]: -40.2%
IC50 [2]: 240 nM
inhibition [3]: 98%
Activity [4]: 8.7%

COc1ccc(C(=O)Nc2nc(C)c(C(=O)/C=C/c3ccc(F)cc3)s2)cc1
Activity [1]: 0.3%
IC50 [2]: 560 nM
inhibition [3]: 88.2%
Activity [4]: 2.1%

Cc1ccc(/C=C/C(=O)c2sc(NC(=O)c3ccccc3)nc2C)cc1
inhibition [3]: 75.1%
Activity [4]: 3%

B1: Polyunsaturated fatty acid 5-lipoxygenase (Homo sapiens), P09917 (protein)
chain: MPSYTVTVATGSQWFAGTDDYIYLSLVGSAGCSEKHLLDKPFYNDFERGAVDSYDVTVDEELGEIQLVRIEKRKYWLNDDWYLKYITLKTPHGDYIEFPCYRWITGDVEVVLRDGRAKLARDDQIHILKQHRRKELETRQKQYRWMEWNPGFPLSIDAKCHKDLPRDIQFDSEKGVDFVLNYSKAMENLFINRFMHMFQSSWNDFADFEKIFVKISNTISERVMNHWQEDLMFGYQFLNGCNPVLIRRCTELPEKLPVTTEMVECSLERQLSLEQEVQQGNIFIVDFELLDGIDANKTDPCTLQFLAAPICLLYKNLANKIVPIAIQLNQIPGDENPIFLPSDAKYDWLLAKIWVRSSDFHVHQTITHLLRTHLVSEVFGIAMYRQLPAVHPIFKLLVAHVRFTIAINTKAREQLICECGLFDKANATGGGGHVQMVQRAMKDLTYASLCFPEAIKARGMESKEDIPYYFYRDDGLLVWEAIRTFTAEVVDIYYEGDQVVEEDPELQDFVNDVYVYGMRGRKSSGFPKSVKSREQLSEYLTVVIFTASAQHAAVNFGQYDWCSWIPNAPPTMRAPPPTAKGVVTIEQIVDTLPDRGRSCWHLGAVWALSQFQENELFLGMYPEEHFIEKPVKEAMARFRKNLEAIVSVIAERNKKKQLPYYYLSPDRIPNSVAI
Km [5]: 1.8 µM
Vmax [6]: 0.42 nmol/min
Vmax [7]: 0.31 nmol/min
Vmax [8]: 0.25 nmol/min
Vmax [9]: 0.43 nmol/min
Vmax [10]: 0.32 nmol/min
Vmax [11]: 0.29 nmol/min
Km [12]: 1.41 µM
Km [13]: 0.43 µM
Km [14]: 2.91 µM
Km [15]: 0.53 µM
Km [16]: 2.1 µM
